{
  "source": "patent US6596751B2",
  "about": "“α-substituted carboxylic acid derivatives” (Sankyo Company Limited, priority 1999, dated 2003)",
  "note": "Counter-ions that a name gives are not always drawn.",
  "data": [
    {"test_system": "KK mice (4-5 months old) suffering from diabetes mellitus", "test": "Hypoglycemic activity: blood sugar lowering in diabetic KK mice fed the test compound", "assay_type": "in vivo", "details": "4 per group, powdered feed containing 0.01% of test compound for 3 days, plasma glucose vs control group", "description": "Blood was collected from the tail veins of KK mice (4-5 months old) suffering from diabetes mellitus, and it was subjected to an assay of the blood sugar level. The mice were divided in groups (4 mice per group) as to have equal blood sugar levels on average in each group. Powdered mouse feed (F-1, Funabashi Farm) containing 0.01% of a test compound was given the mice for 3 days. Those mice groups fed with the test compound were referred to as “drug treated group”. Further, those groups fed with powdered feed free of the test compound were referred to as “control group”. Blood was collected from the tail veins of the mice 3 days later and was subjected to a centrifuge, and the glucose concentration in the resultant plasma was assayed with a glucose analyzer (Glucoloader, A&T Company). The average blood sugar lowering rate was calculated from the following formula:\nBlood sugar lowering rate (%)=(Average blood sugar level in control group−Average blood sugar level in drug treated group)×100/Blood sugar level in control group", "units": {"Blood sugar lowering rate (%)": "%"}, "values": [
      {"smiles": "Cn1c(COc2ccc(CC(OCc3ccc(F)cc3)C(=O)O)cc2)nc2ccc(Oc3ccc(C45CC6CC(CC(C6)C4)C5)cc3)cc21", "note": "(centres unmarked) [Example 2, 3-[4-[6-(4-Adamantan-1-ylphenoxy)-1-methyl-1H-benzimidazol-2-ylmethoxy]phenyl]-2-(4-fluorobenzyloxy)propionic acid]", "Blood sugar lowering rate (%)": 58.5},
      {"smiles": "Cn1c(COc2ccc(CC(OCc3ccc(F)cc3)C(=O)O)cc2)nc2ccc(Sc3cc(C(C)(C)C)c(O)c(C(C)(C)C)c3)cc21", "note": "(centres unmarked) [Example 4, 3-[4-[6-(3,5-Di-t-butyl-4-hydroxyphenylthio)-1-methyl-1H-benzimidazol-2-ylmethoxy]phenyl]-2-(4-fluorobenzyloxy)propionic acid]", "Blood sugar lowering rate (%)": 40.8},
      {"smiles": "CCOC(Cc1ccc(OCc2nc3ccc(OC)cc3n2C)cc1)C(=O)O.Cl", "note": "(centres unmarked) [Example 9, 2-Ethoxy-3-[4-(1-methyl-6-methoxy-1H-benzimidazol-2-ylmethoxy)phenyl]propionic acid hydrochloride]", "Blood sugar lowering rate (%)": 48.4},
      {"smiles": "COC(=O)[C@H](Cc1ccc(OCc2nc3ccc(OC)cc3n2C)cc1)Nc1ccccc1C(=O)c1ccccc1.Cl", "note": "[Example 16, N-(2-Benzoylphenyl)-4-(6-methoxy-1-methyl-1H-benzimidazol-2-ylmethoxy)phenylalanine methyl ester hydrochloride]", "Blood sugar lowering rate (%)": 32.1},
      {"smiles": "Cc1cc(Oc2ccc3nc(COc4ccc(C[C@H](Nc5ccccc5C(=O)c5ccccc5)C(=O)O)cc4)n(C)c3c2)cc(C)c1N", "note": "[Example 20, 4-[6-(4Amino-3 ,5dimethylphenoxy)-1-methyl-1H-benzimidazol-2-ylmethoxy]-N-(2-benzoylphenyl)phenylalanine dihydrochloride]", "Blood sugar lowering rate (%)": 40.0}
    ]}
  ]
}
